≈ marks a conversion by molar mass, not a printed value.

The conditions of the data set: buffer; pH 7.4; 200.0 µM.
`CC(NC(=O)C(C)N1C(=O)c2cccc([N+](=O)[O-])c2C1=O)c1ccccc1` (stereo not drawn) returned a kinetic solubility of 28.3 µg/mL (≈ 77 µM).
`Cc1ccc(Oc2c(C)nc(-c3ccccc3)[nH]c2=O)cc1`: the kinetic solubility stood at 1 µg/mL (≈ 3.42 µM).
Compound `CC1CN(C(=O)COC(=O)c2cccc(S(=O)(=O)N3CCc4ccccc43)c2)CC(C)O1` (stereo not drawn) had a kinetic solubility of 15.3 µg/mL (≈ 33.4 µM). Compared with the last compound, the solubility kinetic is about 15-fold higher.
`CCN(CC)CCNc1ccc(CO)c2sc3ccccc3c(=O)c12` registered a kinetic solubility of more than 53.5 µg/mL.
For `O=C(Cc1ccc(Br)cc1)NCCc1ccccc1`, the kinetic solubility came to 7.5 µg/mL (≈ 23.6 µM).
As for `O=C(O)c1ccc(Cl)c(S(=O)(=O)NCc2cccnc2)c1`, the solubility (kinetic) is more than 49 µg/mL.
The same measure for `Cc1ccsc1C(=O)OC(C)C(=O)NC1CCCCC1C` (stereo not drawn): 6.4 µg/mL (≈ 20.7 µM); for `Cc1ccc(NC(=O)CC(N)=S)cc1`: 30.7 µg/mL (≈ 147 µM).
As for `COc1ccccc1NS(=O)(=O)c1ccc(C(=O)NCc2ccc(S(N)(=O)=O)cc2)cc1`, the kinetic solubility is 20.3 µg/mL (≈ 42.7 µM).
In turn, `CN(C)c1nc(N)c([N+](=O)[O-])c(N2CCCCCC2)n1` returned a kinetic solubility of 39.7 µg/mL (≈ 142 µM). Against the preceding compound, the solubility kinetic is about 2-fold higher.
`Cc1ccccc1-c1nc(C#N)c(N2CCCCC2)o1` showed a solubility (kinetic) of 1.8 µg/mL (≈ 6.73 µM).
To `Cc1cc(NC(=O)COC(=O)c2ccc(C)c(C)c2)no1` belongs 3.7 µg/mL (≈ 12.8 µM); to `CC(NC(=O)c1ccco1)C(=O)Nc1nccs1` (stereo not drawn), more than 39.8 µg/mL.
`CC1CC(C(=O)Nc2ccccc2)C(=O)O1` (stereo not drawn) came in with a solubility (kinetic) of 27.2 µg/mL (≈ 124 µM).
`NC(=O)c1ccc(SCC(=O)NC2CCCCC2)c([N+](=O)[O-])c1` returned a kinetic solubility of 14.7 µg/mL (≈ 43.6 µM).
`COc1ccc(-c2noc(CCC(=O)NCCc3ccccc3)n2)cc1` yielded a solubility (kinetic) of 5.4 µg/mL (≈ 15.4 µM).
For the compound `C=CCn1c(SCC(=O)Nc2c(C)n(C)n(-c3ccccc3)c2=O)nnc1-c1cccnc1`, the solubility (kinetic) was more than 69.2 µg/mL.
As to `CC1(C)Cc2sc3c(=O)[nH]c(=S)[nH]c3c2CO1`, the kinetic solubility is more than 40.3 µg/mL.
The compound `O=C(O)c1ccc2c(c1)C(=O)N(Cc1ccco1)C2=O` had a kinetic solubility of more than 40.7 µg/mL.
Take `N#Cc1ccccc1NC(=O)CN1CCOCC1`: the solubility (kinetic) is more than 36.8 µg/mL.
In turn, `Cc1cc(=O)cc(C)n1-c1ccc(F)cc1F` came in with a kinetic solubility of more than 35.3 µg/mL.
The same measure for `O=C(NC1CCCCC1)C1CC(=O)N(CCc2ccc(F)cc2)C1` (stereo not drawn): 45 µg/mL (≈ 135 µM).
`CN(CC(=O)Nc1ccc(F)cc1)C(=O)C1CCCC1` registered a solubility (kinetic) of more than 41.7 µg/mL.
The compound `CCCN1C(=O)C2(SC(NC(C)=O)=NN2C(C)=O)c2cc(C)cc(C)c21` (stereo not drawn) came in with a solubility (kinetic) of more than 56.2 µg/mL.
To `O=C(CSc1nncs1)NNC(=O)c1ccccc1Br` belongs more than 56 µg/mL; to `O=C(Nc1ccc(F)cc1F)NC1CCN(Cc2c(F)cccc2Cl)CC1`, 5 µg/mL (≈ 12.6 µM).
As for `Cc1ccc(-n2c(C)nc3cc(Cl)ccc3c2=O)nc1`, the kinetic solubility was more than 42.9 µg/mL.
`CC(NC(=O)C(c1ccccc1)c1ccccc1)C(=O)N1CCCCC1` (stereo not drawn) registered a kinetic solubility of 49.3 µg/mL (≈ 141 µM).
For `COc1ccccc1NC(=O)COC(=O)C1C2CC3OC(=O)C1C3C2` (stereo not drawn), the solubility (kinetic) was more than 51.8 µg/mL.
Regarding `CCOc1ccccc1NC(=S)N1CCCCCC1`, the solubility (kinetic) was more than 41.8 µg/mL.
`c1ccc(CN2CCN(Cc3c[nH]c4ccccc34)CC2)cc1` had a kinetic solubility of more than 45.8 µg/mL.
As to `N#Cc1cccc(NC(=O)CCN2C(=O)C3CCCCC3C2=O)c1` (stereo not drawn), the solubility (kinetic) was more than 48.8 µg/mL.
Compound `O=C(CSCc1cccc(F)c1)NCc1ccccc1` had a kinetic solubility of 35.2 µg/mL (≈ 122 µM).
In the case of `CC(=O)O/N=C/c1c(C)c(C=O)n2ccccc12`, the solubility (kinetic) is more than 36.6 µg/mL.
With `Cc1c(C(=O)n2cnc3ccccc32)cccc1[N+](=O)[O-]`, the kinetic solubility was 39.8 µg/mL (≈ 142 µM).
The same measure for `COc1ccc(C(=O)Nc2cccc3ccccc23)cc1`: 1.1 µg/mL (≈ 3.97 µM).
`O=C(OCC(=O)N1CCCc2ccccc21)c1cc(Cl)ccc1O` yielded a solubility (kinetic) of 3.4 µg/mL (≈ 9.83 µM).
Consider `Cn1c(=O)c2c(nc(N3CCOCC3)n2CCc2ccccc2)n(C)c1=O`, for which the kinetic solubility worked out at 53.9 µg/mL (≈ 146 µM).
The same measure for `CC(C)NC(=O)c1cccc2c1-c1ccccc1C2=O`: 13.3 µg/mL (≈ 50.1 µM); for `CCOC(=O)C1=C(c2ccccc2)NC(=S)NC1c1ccc(Cl)cc1` (stereo not drawn): 5.3 µg/mL (≈ 14.2 µM).
To `CCCc1c(C)nn(-c2ncccc2[N+](=O)[O-])c1C` belongs more than 39 µg/mL.
The compound `O=C(COC(=O)c1cccc(S(=O)(=O)N2CCOCC2)c1)NCc1ccc2c(c1)OCO2` registered a solubility (kinetic) of 66.8 µg/mL (≈ 144 µM).
In the case of `CC1CCCCN1C(=O)c1ccc(C(=O)c2ccccc2)cc1` (stereo not drawn), the solubility (kinetic) was more than 46.1 µg/mL.
Compound `O=C(CN1CCC(C(=O)O)CC1)Nc1ccccc1Oc1ccccc1` registered a kinetic solubility of 47.5 µg/mL (≈ 134 µM).
In turn, `N#Cc1ccccc1NC(=O)c1cc(=O)c2ccccc2o1` showed a kinetic solubility of 1.9 µg/mL (≈ 6.55 µM).
`S=C(NCC1CCCO1)c1ccc(Br)cc1` (stereo not drawn) had a solubility (kinetic) of 39 µg/mL (≈ 130 µM).
In turn, `O=C1CC(c2ccc(F)cc2)CC2=C1C=Nc1ccccc1N2` (stereo not drawn) registered a solubility (kinetic) of 0.7 µg/mL (≈ 2.29 µM).
The same measure for `Cc1ccc(C(C)NC(=O)c2cccs2)cc1` (stereo not drawn): 20.7 µg/mL (≈ 84.4 µM); for `C#CCN1C(=O)C2(OCCO2)c2ccccc21`: more than 34.4 µg/mL; for `CC(NC(=O)C12CC3CC(CC(C3)C1)C2)c1ccc(F)cc1` (stereo not drawn): 1.4 µg/mL (≈ 4.64 µM).
The same measure for `CCOc1cccc(C(=O)Nc2ccc3oc(-c4cccnc4)nc3c2)c1`: less than 0.3 µg/mL; for `Cc1ccc(SCCC(=O)NCc2ccccn2)cc1`: more than 43 µg/mL.
The same measure for `Cc1nc(C)c(-c2ccnc(/N=C/NO)n2)s1`: 34 µg/mL (≈ 136 µM).
Regarding `Cc1ccc(-n2c(C)c(C)c3c(N)ncnc32)cc1`, the solubility (kinetic) worked out at 16.1 µg/mL (≈ 63.8 µM).
`CC(C)Oc1c(N2CCOCC2)c(=O)c1=O` came in with a kinetic solubility of more than 33.8 µg/mL.
Consider `Cc1cccc(NC(=O)CN2C(=O)CSC2=O)c1`, for which the kinetic solubility is more than 39.6 µg/mL.
As for `CCNS(=O)(=O)c1ccc(CCC(=O)N2CCOCC2)cc1`, the kinetic solubility was more than 49 µg/mL.
Turning to `O=c1[nH]c2ccccc2nc1C(Nc1ccccc1)c1ccccc1` (stereo not drawn), the solubility (kinetic) was less than 0.2 µg/mL.
To `CCOC(=O)C1CCN(C(=O)CCC2CCCC2)CC1` belongs 37.6 µg/mL (≈ 134 µM); to `COc1cccc2sc(/N=C/N(C)C)nc12`, 33.6 µg/mL (≈ 143 µM).
As to `COc1ccc(C2NC(=S)NC3=C2N2CCC3CC2)cc1` (stereo not drawn), the solubility (kinetic) was more than 45.2 µg/mL.
Compound `Oc1ccccc1C=Nc1cccc2ccccc12` registered a solubility (kinetic) of 9.4 µg/mL (≈ 38 µM).
In the case of `O=C(N=C1SC2CS(=O)(=O)CC2N1c1ccccc1)c1ccccc1` (stereo not drawn), the solubility (kinetic) was 4 µg/mL (≈ 10.7 µM).
Compound `CCN(C(=O)Cc1c(C(=O)O)[nH]c2ccccc12)c1ccc(OC)cc1` gave a solubility (kinetic) of more than 52.9 µg/mL.
As for `O=C(COc1ccccc1Br)Nc1ccc2c(c1)OCCCO2`, the solubility (kinetic) was 1.6 µg/mL (≈ 4.23 µM).
Take `O=C(OCCN=C1NS(=O)(=O)c2ccccc21)c1cccs1`: the kinetic solubility worked out at 2.5 µg/mL (≈ 7.43 µM).
`O=C1NC(=S)N/C1=C/c1ccc2ccccc2c1` registered a kinetic solubility of 0.6 µg/mL (≈ 2.36 µM).
Compound `Cc1ccc(S(=O)(=O)CCC(=O)OCc2nnc(-c3ccccc3)o2)cc1` displayed a solubility (kinetic) of more than 58 µg/mL.
In the case of `Cc1ccc(CCN2CC(C(=O)NC(C)C)CC2=O)cc1` (stereo not drawn), the kinetic solubility is more than 43.3 µg/mL.
To `Cc1nc(NC(=O)COC(=O)CCc2ccccc2)c(Cl)cc1Cl` belongs 21.8 µg/mL (≈ 59.4 µM).
For `CC1(C)CC2CC(C)(CN2C(=S)Nc2ccccc2)C1` (stereo not drawn), the kinetic solubility amounted to 41.6 µg/mL (≈ 144 µM). This solubility kinetic is about 1.9-fold higher than that of the compound before.
The compound `Cc1ccc(C(=O)NCCCNC(=O)c2ccccn2)cc1` yielded a kinetic solubility of more than 44.6 µg/mL.
As for `CC1(C)CC(=O)C(C(O)c2ccccc2)C(C)(C)N1` (stereo not drawn), the solubility (kinetic) was determined as 35.2 µg/mL (≈ 135 µM).
`O=C1Nc2ccc(F)cc2C12OCCO2` returned a kinetic solubility of 31.3 µg/mL (≈ 150 µM).
`Cc1ccc(/C=C2/C(=O)ON=C2c2ccccc2)o1` came in with a kinetic solubility of 38 µg/mL (≈ 150 µM).
The compound `CC(=O)N1CCc2ccc(S(=O)(=O)N3CCc4ccccc43)cc21` came in with a kinetic solubility of 0.5 µg/mL (≈ 1.46 µM).
To `CCc1cc(C(=O)c2ccc(OC)cc2)c(NC(=O)CCC(=O)O)s1` belongs more than 54.2 µg/mL; to `O=C(Nc1nccs1)[C@@H]1CCCN1S(=O)(=O)c1ccc(Cl)cc1`, 31.5 µg/mL (≈ 84.7 µM); to `COc1ccccc1C(C)NC(=O)CCOc1cccc(C)c1` (stereo not drawn), 2.4 µg/mL (≈ 7.66 µM).
Compound `O=C1N=c2ccccc2=C1c1c(O)[nH]c2c(C(F)(F)F)cccc12` had a kinetic solubility of less than 0.4 µg/mL.
The compound `CCn1c(=O)c(C(=O)Nc2ncccc2O)c(O)c2ccccc21` had a solubility (kinetic) of 0.9 µg/mL (≈ 2.77 µM).
In turn, `O=C1/C(=C/c2cccnc2)SC(=S)N1c1ccc(O)cc1` gave a solubility (kinetic) of 0.9 µg/mL (≈ 2.86 µM).
Compound `CC1(C)CC(NCCC(c2ccccc2)c2ccco2)CCO1` (stereo not drawn) had a solubility (kinetic) of 44.5 µg/mL (≈ 142 µM).
For the compound `CCOC(=O)c1c(-c2ccc(C)s2)csc1N`, the kinetic solubility came to 7.3 µg/mL (≈ 27.3 µM).
On to `O=C(NC1=NCCS1)c1cccc(Br)c1`, for which the kinetic solubility was determined as 11.3 µg/mL (≈ 39.6 µM).
To `Cn1c(=O)[nH]c(=O)c2c1nc1n2CC(COc2ccc3ccccc3c2)O1` (stereo not drawn) belongs 0.4 µg/mL (≈ 1.1 µM).
The compound `CC(=O)Nc1c2c(nn1-c1cccc(Cl)c1)CS(=O)(=O)C2` gave a kinetic solubility of more than 48.9 µg/mL.
`COc1cccc(CN2CC=C(c3ccc(F)cc3)CC2)c1` displayed a kinetic solubility of 10.3 µg/mL (≈ 34.6 µM).
The same measure for `COC(=O)c1cccc(NC(=S)NC(C)C)c1`: more than 37.8 µg/mL; for `CC(Sc1nccn1C)C(=O)Nc1ccc(C(N)=O)cc1` (stereo not drawn): more than 45.7 µg/mL.
On to `COc1ccc(N2CC(NC(=O)N3CCc4ccccc43)CC2=O)cc1OC` (stereo not drawn), for which the solubility (kinetic) was more than 57.2 µg/mL.
Regarding `CC(C(c1cccs1)c1c(N)n(C)c(=O)n(C)c1=O)[N+](=O)[O-]` (stereo not drawn), the kinetic solubility was more than 48.7 µg/mL.
The compound `CC1(C)C(=O)N(c2ccccc2Cl)C(=O)c2ccccc21` gave a solubility (kinetic) of 44.3 µg/mL (≈ 148 µM).
As to `CC(C)(C)NCC(O)COc1cccc2c1CC(O)C(O)C2` (stereo not drawn), the kinetic solubility was more than 46.4 µg/mL.
To `CC(C)S(=O)(=O)C/C(N)=N/OC(=O)c1cc(Cl)cc(Cl)c1` belongs 34.5 µg/mL (≈ 97.7 µM); to `O=C(NCc1ccco1)C1CC(c2ccc(F)cc2)=NO1` (stereo not drawn), 8 µg/mL (≈ 27.8 µM).
The same measure for `O=[N+]([O-])c1cccnc1NCCc1c[nH]c2ccccc12`: 0.3 µg/mL (≈ 1.06 µM).
Take `COc1ccc(CN2C(=O)c3ccc(C(=O)O)cc3C2=O)cc1`: the kinetic solubility was more than 46.7 µg/mL.
Regarding `O=C(CSc1cccc2cccnc12)Nc1cc(C(=O)O)cc(C(=O)O)c1`, the solubility (kinetic) stood at 52 µg/mL (≈ 136 µM).
The same measure for `Cc1ccc(S(N)(=O)=O)cc1NC(=O)C(c1ccccc1)c1ccccc1`: 37 µg/mL (≈ 97.2 µM).
In the case of `CCc1ccc(Nc2nc(C)cc(C)n2)cc1.Cl`, the kinetic solubility was determined as 18.4 µg/mL.
To `Nc1ncc2c(n1)-c1ccoc1CC2` belongs more than 28.1 µg/mL; to `Cc1ccc(-c2onc3ccc(Br)cc23)cc1`, less than 0.6 µg/mL.

Broadly, the solubility (kinetic) is the concentration staying in solution when a stock, usually in DMSO, is diluted into the medium.

The values above are taken from PubChem BioAssay AID1996.
